Data published in patent US20040076974A1, “Liver necrosis predictive genes” (priority 2002, published 2004).
Several values for one entry are separate records, joined by “and”; a condition that tells them apart may be missing. Equal entries are not always repeated. Where two headings read alike, the source gives them in different places.

How the values were obtained:
[1] = test system: Sprague Dawley rats; settings: rat, in vivo; for Liver Necrosis / Score (histopathology liver necrosis severity score): ip
Outline: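 Toxicity calls (necrosis present or absent at 72 h) and histopathology scores were correlated with tissue gene expression from Crl:CD Sprague Dawley rats. Animals, usually 3 treated with compound by i.p. route and 3 given vehicle, were killed at 6, 24 or 72 h and tissues frozen immediately in liquid nitrogen.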

[2] = test system: toxicologically relevant rat genes (rat CT array); settings: rat, in vivo

O=P1(N(CCCl)CCCl)NCCCO1 (centres unmarked) [cyclophosphamide]
Liver Toxicity Necrosis Classification [1]: no | Liver Necrosis ([1]; 25 mg/kg): no | Score (histopathology liver necrosis severity score) ([1]; 25 mg/kg): 1 | Liver Necrosis ([1]; 100 mg/kg): no | Score (histopathology liver necrosis severity score) ([1]; 100 mg/kg): 1 | 3-hydroxyisobutyrate dehydrogenase expression [2]: 0.9805 and 0.7489 and 0.9559 and 1.069 | 14-3-3 zeta expression [2]: 1.184 and 1.14 and 0.9397 and 1.393 and 1.097 and 1.241 and 0.8233 and 0.7916 | 60S ribosomal protein L6 expression [2]: 0.9039 and 0.9014 and 0.8838 and 1.028 and 0.8728 and 0.8315 | ATPase inhibitor (rat mitochondrial IF1 protein) expression [2]: 0.7509 and 0.9233 and 0.8847 and 0.6961 and 0.9379 and 0.8829 and 0.8577 and 0.9897 | Adenine nucleotide translocator 1 expression [2]: 0.9086 and 0.7561 and 1.167 | Aflatoxin B1 aldehyde reductase expression [2]: 0.6743 and 0.8573 and 0.9459 and 0.6588 and 0.7015 | Alpha-1 microglobulin/bikunin precursor (Ambp) expression [2]: 1.017 and 0.5993 and 0.8086 | Alpha-2-macroglobulin expression [2]: 0.846 and 0.9185 and 0.7109 and 1.376 and 0.7513 | Alpha-2-macroglobulin, sequence 2 expression [2]: 0.9485 and 1.095 and 1.193 | Alpha-prothymosin expression [2]: 0.6454 and 0.6204 | Alpha-tubulin expression [2]: 1.198 and 0.7656 and 0.8189 | Annexin V expression [2]: 1.206 and 1.05 and 1.01 | Apolipoprotein All expression [2]: 0.9781 and 0.8882 and 0.8841 | Apolipoprotein C1 expression [2]: 0.9407 and 0.9263 and 1.074 | Apolipoprotein CIII expression [2]: 0.9783 and 0.6934 and 0.9372 | Aquaporin-3 (AQP3) expression [2]: 0.9643 and 0.9481 and 0.9808 | Arginosuccinate synthetase 1 expression [2]: 1.222 and 0.8241 and 1.258 | Bax (alpha) expression [2]: 1.239 and 1.237 and 1.357 and 1.269 and 0.9338 | Beta-actin, sequence 2 expression [2]: 1.01 and 0.7994 and 0.7978 | Beta-tubulin, class I expression [2]: 0.6539 and 0.688 | Betaine homocysteine methyltransferase (BHMT) expression [2]: 0.479 and 0.46 and 0.7332 | Biliverdin reductase expression [2]: 0.8817 and 0.9203 and 1 | C-reactive protein expression [2]: 1.634 and 0.981 and 1.457 | CDK108 expression [2]: 0.8582 and 0.7188 and 0.8687 | Calpactin I heavy chain expression [2]: 1.229 and 1.24 and 1.238 and 1.077 and 1.066 and 1.019 and 0.9156 | Calpain 2 expression [2]: 0.949 and 0.9377 and 0.9321 | Cathepsin B expression [2]: 0.8937 and 0.8218 and 0.8443 | Cathepsin S expression [2]: 1.022 and 1.151 | Cofilin expression [2]: 1.007 and 0.8938 and 0.9356 | Collagen type II expression [2]: 0.9485 and 0.8839 and 0.6238 | Contrapsin-like protease inhibitor (CPi-21) expression [2]: 1.085 and 0.6397 and 0.8351 | Cyclin D1 expression [2]: 0.8933 and 1.39 | Cystatin C expression [2]: 0.9711 and 1.107 and 0.9417 | Dynamin-1 (D100) expression [2]: 0.9779 and 1.159 and 1.053 and 0.8876 and 0.9989 and 0.9805 and 0.8392 and 0.9019 | Elongation factor-1 alpha expression [2]: 1.136 and 0.9264 | Epidermal growth factor expression [2]: 1.068 and 1.046 (2×) and 0.855 and 1.03 | F1-ATPase beta subunit expression [2]: 0.9746 and 0.7787 and 0.8888 | Fas antigen expression [2]: 1.289 and 1.407 and 0.9112 and 1.614 and 1.141 | Fatty acid synthase expression [2]: 0.8145 and 0.6404 and 0.4288 | Gadd45 expression [2]: 0.951 and 0.9302 and 1.226 and 0.8099 and 0.9252 | Gadd153 expression [2]: 1.107 and 1.088 and 1.217 and 1.23 and 1.048 | Glutathione S-transferase theta-1 expression [2]: 1.063 and 0.5752 and 0.7421 | Heme oxygenase expression [2]: 0.9535 and 0.8807 and 1.153 and 0.8353 and 0.9394 and 1.116 and 1.353 and 1.508 | High affinity IgE receptor gamma chain (FcERIgamma) expression [2]: 0.8735 and 0.8896 and 0.9764 | Hypoxanthine-guanine phosphoribosyltransferase expression [2]: 0.9194 and 0.7728 and 0.8641 | ID-1 expression [2]: 1.442 and 1.187 and 1.516 and 0.9754 and 1.354 | IgE binding protein expression [2]: 0.8797 | Integrin beta1 expression [2]: 1.174 and 0.9675 and 1.666 and 0.9992 | Interleukin-18 expression [2]: 0.9442 and 1.131 | JNK1 stress activated protein kinase expression [2]: 1.083 and 1.357 | L-gulono-gamma-lactone oxidase expression [2]: 0.9031 and 1.152 and 0.724 and 0.7478 and 0.9085 | Lecithin: cholesterol acyltransferase expression [2]: 1.164 and 0.8942 and 0.9655 | Matrin F/G expression [2]: 1.192 and 0.8718 and 1.349 and 1.163 | Melanoma-associated antigen ME491 expression [2]: 0.8571 and 0.8832 and 0.9165 | Monocyte chemotactic protein receptor (CCR2) expression [2]: 0.9135 and 0.9294 and 1.707 and 0.9161 and 1.021 | Multidrug resistant protein-1 expression [2]: 1.07 and 0.9469 and 1.398 | Multidrug resistant protein-2 expression [2]: 1.024 and 1.129 and 1.355 | NADP-dependent isocitrate dehydrogenase, cytosolic expression [2]: 0.8988 and 1.062 | NIPK expression [2]: 1.292 and 0.8721 | Nucleoside diphosphate kinase beta isoform expression [2]: 0.9788 and 0.8819 and 0.9694 | Organic anion transporter 3 expression [2]: 1.199 and 1.24 and 0.8444 and 0.9666 | Organic cation transporter 3 expression [2]: 0.9369 and 0.9031 and 0.9971 and 1.049 and 1.006 and 0.9297 and 0.8878 | Ornithine decarboxylase expression [2]: 1.176 and 1.138 and 1.239 and 1.627 and 1.232 and 1.15 and 0.9487 and 1.103 | Osteoactivin expression [2]: 1.044 and 1.068 and 1.102 | PAR interacting protein expression [2]: 0.9853 and 0.8819 and 1.001 and 0.9074 and 0.8501 | Phase-1 RCT-15 expression [2]: 1.548 | Phase-1 RCT-24 expression [2]: 0.8922 | Phase-1 RCT-33 expression [2]: 0.9894 and 0.9036 and 0.7825 and 0.5992 | Phase-1 RCT-36 expression [2]: 0.8405 and 0.8638 and 0.7841 | Phase-1 RCT-38 expression [2]: 0.6634 | Phase-1 RCT-39 expression [2]: 1.102 and 0.8162 | Phase-1 RCT-40 expression [2]: 0.9476 and 0.7827 and 0.6627 and 0.9191 | Phase-1 RCT-43 expression [2]: 1.413 | Phase-1 RCT-48 expression [2]: 0.7872 | Phase-1 RCT-49 expression [2]: 0.9994 | Phase-1 RCT-50 expression [2]: 1.001 and 0.9172 | Phase-1 RCT-57 expression [2]: 1 | Phase-1 RCT-58 expression [2]: 0.9564 | Phase-1 RCT-61 expression [2]: 0.956 and 0.9001 | Phase-1 RCT-65 expression [2]: 1.662 | Phase-1 RCT-68 expression [2]: 1.562 | Phase-1 RCT-78 expression [2]: 0.8268 | Phase-1 RCT-81 expression [2]: 0.9793 | Phase-1 RCT-88 expression [2]: 0.7545 and 0.7728 and 0.8998 and 0.9204 | Phase-1 RCT-89 expression [2]: 0.8326 | Phase-1 RCT-92 expression [2]: 0.7803 and 0.7782 | Phase-1 RCT-117 expression [2]: 0.9098 | Phase-1 RCT-121 expression [2]: 0.9382 | Phase-1 RCT-123 expression [2]: 0.8497 | Phase-1 RCT-128 expression [2]: 0.7223 | Phase-1 RCT-137 expression [2]: 0.7713 | Phase-1 RCT-138 expression [2]: 0.9171 | Phase-1 RCT-144 expression [2]: 0.8012 and 0.9797 and 0.8356 | Phase-1 RCT-146 expression [2]: 0.8995 | Phase-1 RCT-149 expression [2]: 1.199 | Phase-1 RCT-152 expression [2]: 0.9267 and 0.8689 | Phase-1 RCT-154 expression [2]: 0.9702 | Phase-1 RCT-156 expression [2]: 1.626 | Phase-1 RCT-164 expression [2]: 1.443 and 0.9271 | Phase-1 RCT-179 expression [2]: 0.9473 and 0.8452 and 0.9271 | Phase-1 RCT-180 expression [2]: 0.9312 and 0.9629 | Phase-1 RCT-182 expression [2]: 0.7286 and 0.6249 and 0.7487 and 1.104 | Phase-1 RCT-189 expression [2]: 1.097 and 0.7075 and 0.8923 | Phase-1 RCT-192 expression [2]: 1.102 | Phase-1 RCT-207 expression [2]: 0.9999 and 1.403 and 0.9634 and 0.8151 | Phase-1 RCT-211 expression [2]: 1.001 | Phase-1 RCT-213 expression [2]: 0.9194 and 0.9272 | Phase-1 RCT-227 expression [2]: 0.8544 and 0.7558 | Phase-1 RCT-230 expression [2]: 0.8887 | Phase-1 RCT-241 expression [2]: 0.9823 | Phase-1 RCT-258 expression [2]: 1.294 and 1.004 and 1.001 | Phase-1 RCT-260 expression [2]: 0.9269 | Phase-1 RCT-264 expression [2]: 0.7874 | Phase-1 RCT-270 expression [2]: 0.9664 and 0.6832 | Phase-1 RCT-271 expression [2]: 0.642 and 0.7477 | Phase-1 RCT-288 expression [2]: 0.8319 and 0.9535 | Phase-1 RCT-290 expression [2]: 0.6874 and 0.7078 and 0.8375 | Phase-1 RCT-291 expression [2]: 1 and 0.8077 and 0.9279 | Phase-1 RCT-292 expression [2]: 0.8838 | Poly(ADP-ribose) polymerase expression [2]: 0.9399 and 0.8855 and 1.07 | Presenilin-1 expression [2]: 0.6993 and 0.8827 and 0.7827 | Proliferating cell nuclear antigen gene expression [2]: 0.8773 and 0.9599 and 1 | Protein tyrosine phosphatase, receptor type, D expression [2]: 1.351 and 1.117 | Pyruvate kinase, muscle expression [2]: 0.9707 and 1.019 and 0.8026 | Retinol dehydrogenase type III expression [2]: 1.384 and 0.6954 and 0.7914 | Ribosomal protein S8 expression [2]: 0.9951 and 0.8646 and 0.9055 | Ribosomal protein S17 expression [2]: 0.973 and 0.9247 and 0.8883 and 1.41 and 1.034 and 0.9413 | Stathmin expression [2]: 1.012 and 1.005 and 0.8767 | Thioredoxin-1 (Trx1) expression [2]: 0.9618 and 0.9127 and 0.8599 | Thymidylate synthase expression [2]: 1.077 and 1.121 and 1.142 | Thymosin beta-10 expression [2]: 1.026 and 0.8658 and 0.6552 | Tissue plasminogen activator expression [2]: 0.8917 and 0.8347 and 0.9056 | Transitional endoplasmic reticulum ATPase expression [2]: 0.9095 and 0.8634 and 0.9474 | Transthyretin expression [2]: 0.9173 and 0.9384 and 0.8358 and 0.667 and 1.075 | Ubiquitin conjugating enzyme (RAD 6 homologue) expression [2]: 0.9811 and 1.057 and 0.8291 and 1.341 and 1.041 and 1.145 and 0.8334 and 1.02 | Uncoupling protein 2 expression [2]: 0.8638 and 0.7241 | Zinc finger protein expression [2]: 0.991 and 1.034 and 1.076 and 1.004 and 1.101 and 0.9835 and 1.081 and 1.11 | c-myc expression [2]: 0.9533 (2×) and 0.912 and 1.636 and 0.8965 | p55CDC expression [2]: 0.9412 and 1.059 and 0.9495 | {Phase-1 RCT 98} expression [2]: 0.8899 and 0.9469 | {Ribosomal protein 16} expression [2]: 1.097 and 0.9357 and 0.8372
